Measurements: publication PMC10989073, “Antineoplastic effect of compounds C14 and P8 on TNBC and radioresistant TNBC cells by stabilizing the K-Ras4B^G13D/PDE6δ complex” (Frontiers in Oncology, 2024)

Experiments:
Type in all cases: cell-based, human
[1] = test system: MCF-10A cells; test: Clonogenic assay; details: 10 to 12 days, C14 and P8 at IC50-48, cisplatin 100 µM, doxorubicin 0.5 µM
Method: (§1) The principal aim of a clonogenic assay is to evaluate the effect of chemotherapy agents or new drugs by the measurement of their ability to arrest tumor cell division and their ability to develop new colonies after their exposure to these new drugs ([56]). Therefore, the colony formation ability of the cell lines MCF-10A, MDA-MB-231, and MDA-MB-231RR was evaluated after their exposure to the C14 and P8 compounds. In brief, breast cancer cell lines were cultured in 6-well plates (Corning), seeding 300 cells per well, and incubated at 37°C in 5% CO2 for 24 h. Compounds C14 and P8 were added at the maximum evaluated concentration IC50-48. As controls, cells without treatment and cells treated in the presence of a vehicle (DMSO at 0.66%) were employed (Sigma-Aldrich). […] After 10 days of treatment, cells were fixed with 4% PFA and stained with 0.1% crystal violet in citric acid (Sigma-Aldrich) for 15 minutes. Subsequently, the dye present in the cells was extracted using isopropanol and read at 570 nm in a Synergy-HTX microplate reader (BioTek). Each test was performed in triplicate. Data were expressed as % colonies relative to the untreated control ([56]).

[2] = test system: MDA-MB-231RR cells; test: Clonogenic assay; details: 10 to 12 days, C14 and P8 at IC50-48, cisplatin 100 µM, doxorubicin 0.5 µM
Method: as §1

[3] = test system: MDA-MB-231 cells; test: Clonogenic assay; details: MDA-MB-231, 10 to 12 days; C14 and P8 at IC50-48, cisplatin 100 µM, doxorubicin 0.5 µM
Method: as §1

[4] = test system: MDA-MB-231RR cells; test: Apoptosis/necrosis assay (Annexin V–propidium iodide, flow cytometry); details: 24 h, C14 and P8 at IC50-24, cisplatin 100 µM, doxorubicin 0.5 µM
Method: (§2) To determine if the C14 and P8 compounds were able to evoke cell death by apoptosis or necrosis, cell lines MCF-10A, MDA-MB-231, and MDA-MB-231RR were treated at IC50-24 for 24 h. Apoptosis and necrosis were determined using the Apoptosis/Necrosis Detection kit (Abcam, Cambridge, UK) according to the manufacturer’s instructions. In brief, approximately 500,000 cells were seeded in 6-well plates (Corning) for 24 h. Then, each cell line was treated with the respective IC50-24 concentrations of C14 and P8. […] Cells were harvested and collected by centrifugation. All the samples were analyzed in triplicate using flow cytometry equipment FACSCalibur instrument (BD Biosciences, San Jose, CA, USA) at […] and 575-nm emission. Data analysis was performed using the FlowJo software (Tree Star Inc., Ashland, OR, USA). All experiments were performed in triplicate.

[5] = test system: MDA-MB-231 cells; test: as above; details: MDA-MB-231, 24 h; C14 and P8 at IC50-24, cisplatin 100 µM, doxorubicin 0.5 µM
Method: as §2

[6] = test system: cyclin D1 and GSK3β in MDA-MB-231RR cells; test: Western blotting of cyclin D1 and GSK3β; details: 3 h, C14 and P8 at IC50-24 (Figure 7 legend), cisplatin 100 µM, doxorubicin 0.5 µM
Method: (§3) To determine the effect of the C14 and P8 compounds over the protein effectors of K-Ras4B, AKT, and ERK, immunoblotting assays were conducted with specific antibodies. In brief, MCF-10A, MDA-MB-231, and MDA-MB-231RR cells were plated in 100-mm culture dishes until 80% of confluents. Cell adhesion was allowed for 24 h. […] After pre-treatment, cells were stimulated with 100 ng/ml EGF for 10 minutes to promote AKT and ERK activation. Later, the whole-cell extracts were obtained by the lysis of the cells (Cytoskeleton) in the presence of proteases and phosphatase inhibitors. Subsequently, the protein extracts were incubated at 4°C for 40 minutes to be clarified by centrifugation for 10 minutes at 14,000 rpm, at 4°C. The protein concentration of each extract was determined by using the Precision Red Advanced Protein Assay Reagent (Cytoskeleton) Then, approximately 25 μg of protein extract was electrophoresed in 10% sodium dodecyl sulfate–polyacrylamide gel electrophoresis (SDS-PAGE) and transferred to polyvinylidene fluoride (PVDF) membranes (Millipore, Billerica, MA, USA). Blots were probed using the following primary antibodies: Total ERK (Cell Signaling, Danvers, MA, USA), pERK (Cell Signaling), Total AKT (Cell Signaling), pAKT (Cell Signaling), GSK3β (Cell Signaling), and cyclin D1 (Abcam) at a 1:1,000 dilution. As a control, an anti-GAPDH antibody (GeneTex, Irvine, CA, USA) was employed at a 1:100,000 dilution and γ-Tubulin (Invitrogen) 1:5,000. Densitometric analysis of blots was performed using the software ImageJ version 1.45 (National Institutes of Health, Bethesda, […], USA).

[7] = test system: cyclin D1 and GSK3β in MDA-MB-231 cells; test: Western blotting of cyclin D1 and GSK3β; details: MDA-MB-231, 3 h; C14 and P8 at IC50-24 (Figure 7 legend), cisplatin 100 µM, doxorubicin 0.5 µM
Method: as §3

[8] = test system: MCF-10A cells; test: Apoptosis/necrosis assay (Annexin V–propidium iodide, flow cytometry); details: 24 h, cisplatin 100 µM, doxorubicin 0.5 µM
Method: as §2, with “Apoptosis” for “To determine if the C14 and P8 compounds were able to evoke cell death by apoptosis or necrosis, cell lines MCF-10A, MDA-MB-231, and MDA-MB-231RR were treated at IC50-24 for 24 h. Apoptosis”, “h.” for “h. Then, each cell line was treated with the respective IC50-24 concentrations of C14 and P8.”

[9] = test system: MDA-MB-231 cells; test: Cell cycle analysis (propidium iodide, flow cytometry); details: MDA-MB-231, 3 h at IC50-48H; control 10.0%
Method: After 3-h incubation, cells were harvested, washed twice in ice-cold PBS, and fixed overnight in 70% ethanol at 4°C. Then, cells were washed in PBS, collected by centrifugation, and stained with staining buffer (PBS with 50 µg/ml propidium iodide and 100 µg/ml RNase A).

[10] = test system: Ras-GTP in MCF-10A cells; test: Ras activation pull-down assay (Raf-RBD); details: 3 h pre-treatment (C14, P8 at IC50-48H), EGF 100 ng/ml 10 min
Method: Subsequently, the cells were stimulated with epidermal growth factor (EGF) (100 ng/ml) for 10 minutes. Lysates (1 mg/ml) were exposed to Ras GTP-binding protein (Raf-RBD), following the manufacturer’s instructions. Experiments for each cell type and condition were repeated three times.

Compound: COc1cccc2c1C(=O)c1c(O)c3c(c(O)c1C2=O)C[C@@](O)(C(=O)CO)C[C@@H]3O[C@H]1C[C@H](N)[C@H](O)[C@H](C)O1 [Doxorubicin, doxorubicin, reference compound]
- reduction of colony growth [1]: up to 90%
- reduction in colony formation [2]: 90%
- reduction in colony formation [3]: significant reduction
- apoptosis cells [4]: 0.61%
- necrosis [4]: 1.28%
- apoptosis cells [5]: 4.65%
- necrosis [5]: 9.20%
- reduction in cyclin D1 [6]: 20%
- reduction in cyclin D1 expression [7]: no significant effect
- apoptosis cells [8]: up to 11.54%
- percentage of cells in G2/M [9]: increased
- reduction in Ras-GTP [10]: 40%
